From publication PMC7027535 (Journal of Pineal Research, 2020)

Biological target: T1, Notum (Homo sapiens, UniProt Q6P988, C330S)
T1 sequence (Q6P988 81-451 C330S): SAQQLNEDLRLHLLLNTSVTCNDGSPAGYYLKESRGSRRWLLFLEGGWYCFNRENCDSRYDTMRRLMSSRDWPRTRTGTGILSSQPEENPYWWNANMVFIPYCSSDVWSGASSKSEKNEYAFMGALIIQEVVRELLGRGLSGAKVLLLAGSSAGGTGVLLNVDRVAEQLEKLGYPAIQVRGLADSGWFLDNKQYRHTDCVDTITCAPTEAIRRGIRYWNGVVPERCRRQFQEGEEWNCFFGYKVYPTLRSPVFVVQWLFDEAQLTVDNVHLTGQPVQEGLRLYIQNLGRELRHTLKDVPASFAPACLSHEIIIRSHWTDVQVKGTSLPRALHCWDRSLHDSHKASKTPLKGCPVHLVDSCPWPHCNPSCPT
Test: X-ray crystal structure ([…] Å); thermal shift (Tm […] to […] °C); OPTS enzyme inhibition IC50
Assay type: biochemical

With CC(=O)NCCc1c[nH]c2ccc(O)cc12 [ASE, N‐acetylserotonin] the IC50 was 94 µM.
